Results: patent US10710978B2, “STK4 inhibitors for treatment of hematologic malignancies” (Dana-Farber Cancer Institute, Inc., priority 2015, dated 2020)
Like-named read-outs stand apart in the source and are kept apart here.

Columns and labels:
STK24 (MST3) = STK24 (MST3) (Homo sapiens (Human), UniProt Q9Y6E0); assay: Z-lyte biochemical IC50 assay (Invitrogen); settings: ATP concentration matched the Km
Outline: (§1)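 FRET-based Z-lyte kinase assays run at Invitrogen, ATP at each kinase's Km; for STK4, 6.25-160 ng enzyme with 2 μM Ser/Thr 07 peptide in HEPES pH 7.5, MgCl2, EGTA, Brij-35, 1 h reaction then development reagent. 10-point 3-fold titration from 10 μM.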

STK4 (MST1) = STK4 (MST1) (Homo sapiens (Human), UniProt Q13043); assay: Z-lyte biochemical IC50 assay (Invitrogen); settings: ATP concentration matched the Km
Outline: as §1

ATR = ATR (Homo sapiens (Human), UniProt Q13535); assay: KiNativ assay; format: binding; settings: H929 live cell
Description: (§2) Biochemical IC50s of the compounds of the present disclosure against various kinases were measured in a KiNativ assay. Compounds were screened in duplicate at 10 μM in H929 live cell. IC50 was measured via Mass spectroscopy (MS).

AurA = AurA (Homo sapiens (Human), UniProt O14965); assay: KiNativ assay; format: binding; settings: H929 live cell
Sequence of AurA (O14965 whole entry): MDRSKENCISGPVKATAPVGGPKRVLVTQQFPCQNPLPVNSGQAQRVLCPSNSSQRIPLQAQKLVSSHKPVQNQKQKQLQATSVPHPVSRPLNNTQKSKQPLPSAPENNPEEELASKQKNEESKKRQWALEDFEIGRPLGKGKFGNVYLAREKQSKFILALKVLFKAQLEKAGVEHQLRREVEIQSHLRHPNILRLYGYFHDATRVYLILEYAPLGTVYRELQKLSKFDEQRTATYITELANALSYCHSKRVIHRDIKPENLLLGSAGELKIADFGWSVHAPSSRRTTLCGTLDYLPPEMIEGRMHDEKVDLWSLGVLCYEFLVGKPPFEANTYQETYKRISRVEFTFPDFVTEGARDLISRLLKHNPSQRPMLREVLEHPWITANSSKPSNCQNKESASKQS
Description: as §2

BARK1 = BARK1 (Homo sapiens (Human), UniProt P25098); assay: KiNativ assay; format: binding; settings: H929 live cell
Description: as §2

CDK2 = CDK2 (Homo sapiens (Human), UniProt P24941); assay: KiNativ assay; format: binding; settings: H929 live cell
Description: as §2

CHK2 = CHK2 (Homo sapiens (Human), UniProt O96017); assay: KiNativ assay; format: binding; settings: H929 live cell
Sequence of CHK2 (O96017 whole entry): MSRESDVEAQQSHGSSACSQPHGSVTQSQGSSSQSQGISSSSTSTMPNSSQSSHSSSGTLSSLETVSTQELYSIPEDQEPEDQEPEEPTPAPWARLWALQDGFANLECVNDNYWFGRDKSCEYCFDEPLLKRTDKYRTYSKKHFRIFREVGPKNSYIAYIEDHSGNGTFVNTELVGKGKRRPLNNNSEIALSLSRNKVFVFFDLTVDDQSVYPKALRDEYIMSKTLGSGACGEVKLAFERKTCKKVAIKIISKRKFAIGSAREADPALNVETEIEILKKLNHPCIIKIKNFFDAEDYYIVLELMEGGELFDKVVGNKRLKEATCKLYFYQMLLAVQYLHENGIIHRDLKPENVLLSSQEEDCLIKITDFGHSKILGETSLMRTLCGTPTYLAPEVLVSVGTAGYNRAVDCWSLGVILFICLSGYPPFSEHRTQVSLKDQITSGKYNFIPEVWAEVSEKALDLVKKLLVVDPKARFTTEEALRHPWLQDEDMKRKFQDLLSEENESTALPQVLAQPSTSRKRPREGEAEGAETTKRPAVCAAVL
Description: as §2

CLK2 = CLK2 (Homo sapiens (Human), UniProt P49760); assay: KiNativ assay; format: binding; settings: H929 live cell
Description: as §2

CaMK2d = CaMK2d (Homo sapiens (Human), UniProt Q13557); assay: KiNativ assay; format: binding; settings: H929 live cell
Description: as §2

FYN, SRC, YES = assay: KiNativ assay; format: binding; settings: H929 live cell
Description: as §2

GCN2 domain2 = GCN2 domain2 (Homo sapiens (Human), UniProt Q9P2K8); assay: KiNativ assay; format: binding; settings: H929 live cell
Description: as §2

GSK3A = GSK3A (Homo sapiens (Human), UniProt P49840); assay: KiNativ assay; format: binding; settings: H929 live cell
Sequence of GSK3A (P49840 whole entry): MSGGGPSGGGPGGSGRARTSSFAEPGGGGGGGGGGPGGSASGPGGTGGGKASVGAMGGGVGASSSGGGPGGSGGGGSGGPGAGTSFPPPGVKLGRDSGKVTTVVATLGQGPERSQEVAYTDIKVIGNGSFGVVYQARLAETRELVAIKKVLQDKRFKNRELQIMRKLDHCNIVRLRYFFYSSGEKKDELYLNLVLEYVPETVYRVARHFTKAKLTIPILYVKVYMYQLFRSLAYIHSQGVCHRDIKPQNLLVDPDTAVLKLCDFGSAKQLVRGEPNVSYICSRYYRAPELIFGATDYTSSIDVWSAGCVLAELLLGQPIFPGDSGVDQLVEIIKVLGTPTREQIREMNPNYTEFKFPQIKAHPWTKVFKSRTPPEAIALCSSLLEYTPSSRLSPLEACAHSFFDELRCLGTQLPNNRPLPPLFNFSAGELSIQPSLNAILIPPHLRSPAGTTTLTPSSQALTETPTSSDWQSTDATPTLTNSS
Description: as §2

MAP2K4 = MAP2K4 (Homo sapiens (Human), UniProt P45985); assay: KiNativ assay; format: binding; settings: H929 live cell
Description: as §2

MAP3K1 = MAP3K1 (Homo sapiens (Human), UniProt Q13233); assay: KiNativ assay; format: binding; settings: H929 live cell
Sequence of MAP3K1 (Q13233 whole entry): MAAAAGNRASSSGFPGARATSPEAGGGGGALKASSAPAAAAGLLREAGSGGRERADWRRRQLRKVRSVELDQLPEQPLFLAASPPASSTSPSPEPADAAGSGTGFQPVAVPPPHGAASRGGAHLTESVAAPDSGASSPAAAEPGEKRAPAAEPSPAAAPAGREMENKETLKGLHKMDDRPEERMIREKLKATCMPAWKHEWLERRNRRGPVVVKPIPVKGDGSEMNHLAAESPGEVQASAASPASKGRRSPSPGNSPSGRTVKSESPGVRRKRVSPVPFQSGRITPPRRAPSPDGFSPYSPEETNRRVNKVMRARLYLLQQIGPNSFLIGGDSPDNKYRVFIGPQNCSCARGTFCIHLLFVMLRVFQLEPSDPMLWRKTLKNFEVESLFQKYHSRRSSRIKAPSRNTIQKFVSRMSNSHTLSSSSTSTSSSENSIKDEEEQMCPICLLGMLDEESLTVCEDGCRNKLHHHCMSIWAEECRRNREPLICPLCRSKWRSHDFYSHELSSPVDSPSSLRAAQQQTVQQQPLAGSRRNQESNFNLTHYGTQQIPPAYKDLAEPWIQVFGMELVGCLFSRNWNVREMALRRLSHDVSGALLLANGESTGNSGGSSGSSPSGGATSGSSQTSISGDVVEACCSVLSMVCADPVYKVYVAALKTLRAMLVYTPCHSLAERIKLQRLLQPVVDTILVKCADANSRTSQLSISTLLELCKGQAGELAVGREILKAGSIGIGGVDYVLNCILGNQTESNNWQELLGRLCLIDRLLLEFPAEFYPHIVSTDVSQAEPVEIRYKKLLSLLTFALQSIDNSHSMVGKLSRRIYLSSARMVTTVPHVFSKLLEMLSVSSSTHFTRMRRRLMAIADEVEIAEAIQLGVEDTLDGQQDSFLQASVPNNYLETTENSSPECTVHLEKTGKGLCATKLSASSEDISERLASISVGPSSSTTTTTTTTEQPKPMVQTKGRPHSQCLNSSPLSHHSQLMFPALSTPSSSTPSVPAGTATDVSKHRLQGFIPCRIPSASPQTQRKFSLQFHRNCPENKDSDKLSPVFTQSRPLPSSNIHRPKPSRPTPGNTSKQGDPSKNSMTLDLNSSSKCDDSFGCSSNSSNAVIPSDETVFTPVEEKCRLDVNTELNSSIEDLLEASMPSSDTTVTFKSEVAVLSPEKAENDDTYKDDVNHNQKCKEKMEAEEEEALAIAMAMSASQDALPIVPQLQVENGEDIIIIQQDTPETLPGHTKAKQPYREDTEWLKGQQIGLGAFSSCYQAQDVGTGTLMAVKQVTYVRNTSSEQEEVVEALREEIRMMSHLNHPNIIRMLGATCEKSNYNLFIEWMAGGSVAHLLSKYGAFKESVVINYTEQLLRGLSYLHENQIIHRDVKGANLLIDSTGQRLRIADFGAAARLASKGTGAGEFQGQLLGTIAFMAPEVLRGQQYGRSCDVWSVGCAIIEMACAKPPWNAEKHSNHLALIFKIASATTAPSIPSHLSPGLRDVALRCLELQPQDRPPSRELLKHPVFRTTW
Description: as §2

MAP3K2, MAP3K3 = assay: KiNativ assay; format: binding; settings: H929 live cell
Description: as §2

MARK2, MARK3 = assay: KiNativ assay; format: binding; settings: H929 live cell
Description: as §2

MARK3 = MARK3 (Homo sapiens (Human), UniProt P27448); assay: KiNativ assay; format: binding; settings: H929 live cell
Description: as §2

MLK3 = MLK3 (Homo sapiens (Human), UniProt Q16584); assay: KiNativ assay; format: binding; settings: H929 live cell
Sequence of MLK3 (Q16584 whole entry): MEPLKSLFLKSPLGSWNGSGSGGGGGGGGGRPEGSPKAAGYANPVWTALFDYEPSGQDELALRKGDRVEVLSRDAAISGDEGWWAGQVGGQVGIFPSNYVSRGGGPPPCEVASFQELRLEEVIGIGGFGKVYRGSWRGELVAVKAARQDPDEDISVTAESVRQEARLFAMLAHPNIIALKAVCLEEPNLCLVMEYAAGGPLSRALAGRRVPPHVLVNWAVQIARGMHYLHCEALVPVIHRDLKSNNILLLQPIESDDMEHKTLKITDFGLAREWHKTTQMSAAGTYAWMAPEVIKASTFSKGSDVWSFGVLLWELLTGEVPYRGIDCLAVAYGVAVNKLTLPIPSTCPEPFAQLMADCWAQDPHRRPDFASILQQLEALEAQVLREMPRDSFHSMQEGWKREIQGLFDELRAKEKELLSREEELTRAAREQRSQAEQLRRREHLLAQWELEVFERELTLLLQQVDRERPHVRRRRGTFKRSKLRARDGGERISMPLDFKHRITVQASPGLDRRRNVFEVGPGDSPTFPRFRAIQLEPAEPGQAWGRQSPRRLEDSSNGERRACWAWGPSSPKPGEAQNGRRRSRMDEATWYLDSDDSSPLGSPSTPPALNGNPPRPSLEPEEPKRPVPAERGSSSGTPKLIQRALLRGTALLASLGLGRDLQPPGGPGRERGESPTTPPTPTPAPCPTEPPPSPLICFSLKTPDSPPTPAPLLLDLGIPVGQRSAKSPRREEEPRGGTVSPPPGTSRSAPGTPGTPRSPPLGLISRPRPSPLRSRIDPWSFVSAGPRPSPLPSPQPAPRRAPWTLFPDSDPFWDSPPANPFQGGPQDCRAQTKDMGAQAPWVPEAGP
Description: as §2

MSK1 domain1 = MSK1 domain1 (Homo sapiens (Human), UniProt O75582); assay: KiNativ assay; format: binding; settings: H929 live cell
Description: as §2

NDR2 = NDR2 (Homo sapiens (Human), UniProt Q9Y2H1); assay: KiNativ assay; format: binding; settings: H929 live cell
Description: as §2

NEK1 = NEK1 (Homo sapiens (Human), UniProt Q96PY6); assay: KiNativ assay; format: binding; settings: H929 live cell
Description: as §2

NEK7 = NEK7 (Homo sapiens (Human), UniProt Q8TDX7); assay: KiNativ assay; format: binding; settings: H929 live cell
Description: as §2

NEK8 = NEK8 (Homo sapiens (Human), UniProt Q86SG6); assay: KiNativ assay; format: binding; settings: H929 live cell
Sequence of NEK8 (Q86SG6 whole entry): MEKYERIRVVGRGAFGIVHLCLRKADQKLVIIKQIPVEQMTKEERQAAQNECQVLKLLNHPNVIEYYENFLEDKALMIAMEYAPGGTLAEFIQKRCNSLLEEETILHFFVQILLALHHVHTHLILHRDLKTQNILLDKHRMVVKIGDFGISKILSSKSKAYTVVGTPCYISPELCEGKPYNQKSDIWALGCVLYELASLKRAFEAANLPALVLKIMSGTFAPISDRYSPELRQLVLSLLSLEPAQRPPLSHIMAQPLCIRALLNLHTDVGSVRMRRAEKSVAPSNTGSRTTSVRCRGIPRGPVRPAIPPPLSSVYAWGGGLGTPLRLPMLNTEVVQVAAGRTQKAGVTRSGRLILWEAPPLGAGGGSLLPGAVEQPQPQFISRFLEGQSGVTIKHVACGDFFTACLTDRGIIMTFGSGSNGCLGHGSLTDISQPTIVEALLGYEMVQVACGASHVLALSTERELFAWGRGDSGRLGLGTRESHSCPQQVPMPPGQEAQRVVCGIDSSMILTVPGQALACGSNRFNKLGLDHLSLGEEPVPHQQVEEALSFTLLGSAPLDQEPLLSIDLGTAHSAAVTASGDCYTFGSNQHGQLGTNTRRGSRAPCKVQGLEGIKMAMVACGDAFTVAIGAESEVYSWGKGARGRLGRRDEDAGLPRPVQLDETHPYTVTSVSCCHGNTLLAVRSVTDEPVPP
Description: as §2

PIK3CB = PIK3CB (Homo sapiens (Human), UniProt P42338); assay: KiNativ assay; format: binding; settings: H929 live cell
Description: as §2

PIP4K2C = PIP4K2C (Homo sapiens (Human), UniProt Q8TBX8); assay: KiNativ assay; format: binding; settings: H929 live cell
Sequence of PIP4K2C (Q8TBX8 whole entry): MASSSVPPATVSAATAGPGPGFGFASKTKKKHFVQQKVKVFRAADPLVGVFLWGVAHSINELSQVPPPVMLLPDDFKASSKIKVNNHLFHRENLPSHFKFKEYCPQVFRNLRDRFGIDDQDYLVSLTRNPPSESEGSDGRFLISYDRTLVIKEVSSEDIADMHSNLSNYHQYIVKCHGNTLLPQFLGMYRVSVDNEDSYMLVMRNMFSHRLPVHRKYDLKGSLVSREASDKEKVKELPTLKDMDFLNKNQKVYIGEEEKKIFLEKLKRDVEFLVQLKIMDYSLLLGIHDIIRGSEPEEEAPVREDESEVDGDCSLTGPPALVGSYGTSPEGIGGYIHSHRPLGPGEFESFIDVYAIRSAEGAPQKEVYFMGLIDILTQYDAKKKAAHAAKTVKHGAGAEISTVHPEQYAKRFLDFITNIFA
Description: as §2

SNRK = SNRK (Homo sapiens (Human), UniProt Q9NRH2); assay: KiNativ assay; format: binding; settings: H929 live cell
Description: as §2

SRPK1 = SRPK1 (Homo sapiens (Human), UniProt Q96SB4); assay: KiNativ assay; format: binding; settings: H929 live cell
Description: as §2

TLK2 = TLK2 (Homo sapiens (Human), UniProt Q86UE8); assay: KiNativ assay; format: binding; settings: H929 live cell
Description: as §2

p38d, p38g = assay: KiNativ assay; format: binding; settings: H929 live cell
Description: as §2

[1] = range class, read-out: % inhibition

## COc1cc(NS(=O)(=O)C2CC2)ccc1-c1cnc(N)c(-c2ccc3c(c2)CCNC3=O)c1 [Compound I-50, N-(4-(6-amino-5-(1-oxo-1,2,3,4-tetrahydroisoquinolin-6-yl)pyridin-3-yl)-3-methoxyphenyl) cyclopropanesulfonamide]
STK24 (MST3)
  IC50: 200 to 900 nM
STK4 (MST1)
  IC50: < 40 nM
ATR; [1]
  inhibition at 10 µM: 0%
ATR; read-out: inhibition (10 μM)
  inhibition at 10 µM: 17.1%
AurA
  inhibition (10 μM): 11.9%
AurA; [1]
  inhibition at 10 µM: 0%
AurA; read-out: inhibition (10 μM)
  inhibition at 10 µM: 18%
BARK1; [1]
  inhibition at 10 µM: 0%
BARK1; read-out: inhibition (10 μM)
  inhibition at 10 µM: -19.4%
CDK2; [1]
  inhibition at 10 µM: 0%
CDK2; read-out: inhibition (10 μM)
  inhibition at 10 µM: 17.3%
CHK2; [1]
  inhibition at 10 µM: 0%
CHK2; read-out: inhibition (10 μM)
  inhibition at 10 µM: 19.3%
CLK2; [1]
  inhibition at 10 µM: 0%
CLK2; read-out:
  inhibition at 10 µM: 10.8%
CaMK2d; [1]
  inhibition at 10 µM: 0%
CaMK2d; read-out: inhibition (10 μM)
  inhibition at 10 µM: 15.9%
FYN, SRC, YES; 10 μM, range class
  % inhibition: 0.0%
FYN, SRC, YES
  inhibition (10 μM): −2.0%
GCN2 domain2; [1]
  inhibition at 10 µM: 0%
GCN2 domain2; read-out: inhibition (10 μM)
  inhibition at 10 µM: -12.3%
GSK3A; [1]
  inhibition at 10 µM: 75 to 90%
GSK3A; read-out: inhibition (10 μM)
  inhibition at 10 µM: 77.4%
MAP2K4; [1]
  inhibition at 10 µM: 35 to 40%
MAP2K4; read-out: inhibition (10 μM)
  inhibition at 10 µM: 37.5%
MAP3K1; [1]
  inhibition at 10 µM: 75 to 90%
MAP3K1; read-out: inhibition (10 μM)
  inhibition at 10 µM: 86.7%
MAP3K2, MAP3K3; 10 μM, range class
  % inhibition: 0.0%
MAP3K2, MAP3K3
  inhibition (10 μM): 12.0%
MARK2, MARK3; 10 μM, range class
  % inhibition: 0.0%
MARK2, MARK3
  inhibition (10 μM): 0.4%
MARK3; [1]
  inhibition at 10 µM: 0%
MARK3; read-out: inhibition (10 μM)
  inhibition at 10 µM: -17.3%
MLK3; [1]
  inhibition at 10 µM: 35 to 40%
MLK3; read-out: inhibition (10 μM)
  inhibition at 10 µM: 40.9%
MSK1 domain1; [1]
  inhibition at 10 µM: 0%
MSK1 domain1; read-out: inhibition (10 μM)
  inhibition at 10 µM: 0.1%
NDR2; [1]
  inhibition at 10 µM: 0%
NDR2; read-out: inhibition (10 μM)
  inhibition at 10 µM: 4.5%
NEK1; [1]
  inhibition at 10 µM: 0%
NEK1; read-out: inhibition (10 μM)
  inhibition at 10 µM: 16.8%
NEK7; [1]
  inhibition at 10 µM: 0%
NEK7; read-out: inhibition (10 μM)
  inhibition at 10 µM: -18.9%
NEK8; [1]
  inhibition at 10 µM: 0%
NEK8; read-out: inhibition (10 μM)
  inhibition at 10 µM: -8.1%
PIK3CB; [1]
  inhibition at 10 µM: 0%
PIK3CB; read-out: inhibition (10 μM)
  inhibition at 10 µM: 27.7%
PIP4K2C; [1]
  inhibition at 10 µM: > 90%
PIP4K2C; read-out: inhibition (10 μM)
  inhibition at 10 µM: 90.6%
SNRK; [1]
  inhibition at 10 µM: 0%
SNRK; read-out: inhibition (10 μM)
  inhibition at 10 µM: 33.2%
SRPK1; [1]
  inhibition at 10 µM: 0%
SRPK1; read-out: inhibition (10 μM)
  inhibition at 10 µM: -9.2%
TLK2; [1]
  inhibition at 10 µM: 0%
TLK2; read-out: inhibition (10 μM)
  inhibition at 10 µM: -3%
p38d, p38g; 10 μM, range class
  % inhibition: 0.0%
p38d, p38g
  inhibition (10 μM): 7.4%
